Tests used:
[1] = biological target: T1, Prostaglandin G/H synthase 2 (Homo sapiens, UniProt P35354); test: IC50 against recombinant human Prostaglandin G/H synthase 2
T1 sequence (P35354 whole entry): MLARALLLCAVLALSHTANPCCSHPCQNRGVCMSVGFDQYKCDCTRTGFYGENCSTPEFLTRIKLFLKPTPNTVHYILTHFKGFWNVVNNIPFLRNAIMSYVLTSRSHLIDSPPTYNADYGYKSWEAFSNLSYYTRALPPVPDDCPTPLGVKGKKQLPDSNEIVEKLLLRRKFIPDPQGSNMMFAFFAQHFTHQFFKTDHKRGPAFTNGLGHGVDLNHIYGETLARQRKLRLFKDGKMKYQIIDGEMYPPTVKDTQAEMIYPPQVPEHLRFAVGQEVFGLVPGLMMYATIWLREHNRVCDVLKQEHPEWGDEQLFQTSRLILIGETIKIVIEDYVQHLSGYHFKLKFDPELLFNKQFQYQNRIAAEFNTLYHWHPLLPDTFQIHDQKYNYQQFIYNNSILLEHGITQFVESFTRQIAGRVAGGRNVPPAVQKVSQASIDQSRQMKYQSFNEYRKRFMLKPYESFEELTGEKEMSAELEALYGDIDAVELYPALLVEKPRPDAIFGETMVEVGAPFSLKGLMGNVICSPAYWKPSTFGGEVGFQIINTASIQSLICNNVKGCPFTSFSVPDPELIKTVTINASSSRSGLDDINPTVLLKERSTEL

[2] = biological target: T2, Prostaglandin G/H synthase 2 (Mus musculus, UniProt Q05769)
T2 sequence (Q05769 whole entry): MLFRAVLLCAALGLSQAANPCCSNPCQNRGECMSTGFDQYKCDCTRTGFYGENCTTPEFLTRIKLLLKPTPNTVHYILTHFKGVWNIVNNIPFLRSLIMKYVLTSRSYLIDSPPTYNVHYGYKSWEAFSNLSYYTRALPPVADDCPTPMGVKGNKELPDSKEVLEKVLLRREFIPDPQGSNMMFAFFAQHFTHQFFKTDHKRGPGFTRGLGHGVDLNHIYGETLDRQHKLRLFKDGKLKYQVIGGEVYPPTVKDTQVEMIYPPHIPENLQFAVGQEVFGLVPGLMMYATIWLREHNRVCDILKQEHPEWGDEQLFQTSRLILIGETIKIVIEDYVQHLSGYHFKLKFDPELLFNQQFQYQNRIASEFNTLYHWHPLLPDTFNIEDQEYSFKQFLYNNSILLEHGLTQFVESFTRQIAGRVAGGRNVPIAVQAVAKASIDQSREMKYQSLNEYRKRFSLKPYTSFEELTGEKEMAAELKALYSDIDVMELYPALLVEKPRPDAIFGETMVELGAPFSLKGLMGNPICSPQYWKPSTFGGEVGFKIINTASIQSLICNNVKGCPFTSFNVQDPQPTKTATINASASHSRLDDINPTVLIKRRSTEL
Description: IC50 value was determined against Prostaglandin G/H synthase 2 of J7744A.1 cell lines.

[3] = biological target: T3, Prostaglandin G/H synthase 1 (Ovis aries, UniProt P05979)
T3 sequence (P05979 whole entry): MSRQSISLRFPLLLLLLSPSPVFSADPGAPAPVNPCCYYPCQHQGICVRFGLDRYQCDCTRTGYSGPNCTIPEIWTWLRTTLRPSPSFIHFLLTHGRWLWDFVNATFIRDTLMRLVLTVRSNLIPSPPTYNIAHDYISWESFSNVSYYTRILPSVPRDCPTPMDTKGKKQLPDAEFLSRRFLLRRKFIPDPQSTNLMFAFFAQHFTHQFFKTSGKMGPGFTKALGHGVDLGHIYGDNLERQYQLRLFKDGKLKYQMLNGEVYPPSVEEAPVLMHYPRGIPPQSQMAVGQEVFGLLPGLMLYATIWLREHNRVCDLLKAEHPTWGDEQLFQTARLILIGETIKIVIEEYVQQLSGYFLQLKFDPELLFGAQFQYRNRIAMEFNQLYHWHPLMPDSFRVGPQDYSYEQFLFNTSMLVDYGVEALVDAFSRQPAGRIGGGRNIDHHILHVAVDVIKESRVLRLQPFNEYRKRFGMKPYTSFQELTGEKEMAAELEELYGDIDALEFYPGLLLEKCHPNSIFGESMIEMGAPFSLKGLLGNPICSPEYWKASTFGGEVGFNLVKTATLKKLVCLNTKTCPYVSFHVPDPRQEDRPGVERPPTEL
Description: IC50 against ovine Prostaglandin G/H synthase 1

[4] = biological target: T4, Prostaglandin G/H synthase 1 (Homo sapiens, UniProt P23219); test: (§1) IC50 against Prostaglandin G/H synthase 1 from human platelet rich plasma
T4 sequence (P23219 whole entry): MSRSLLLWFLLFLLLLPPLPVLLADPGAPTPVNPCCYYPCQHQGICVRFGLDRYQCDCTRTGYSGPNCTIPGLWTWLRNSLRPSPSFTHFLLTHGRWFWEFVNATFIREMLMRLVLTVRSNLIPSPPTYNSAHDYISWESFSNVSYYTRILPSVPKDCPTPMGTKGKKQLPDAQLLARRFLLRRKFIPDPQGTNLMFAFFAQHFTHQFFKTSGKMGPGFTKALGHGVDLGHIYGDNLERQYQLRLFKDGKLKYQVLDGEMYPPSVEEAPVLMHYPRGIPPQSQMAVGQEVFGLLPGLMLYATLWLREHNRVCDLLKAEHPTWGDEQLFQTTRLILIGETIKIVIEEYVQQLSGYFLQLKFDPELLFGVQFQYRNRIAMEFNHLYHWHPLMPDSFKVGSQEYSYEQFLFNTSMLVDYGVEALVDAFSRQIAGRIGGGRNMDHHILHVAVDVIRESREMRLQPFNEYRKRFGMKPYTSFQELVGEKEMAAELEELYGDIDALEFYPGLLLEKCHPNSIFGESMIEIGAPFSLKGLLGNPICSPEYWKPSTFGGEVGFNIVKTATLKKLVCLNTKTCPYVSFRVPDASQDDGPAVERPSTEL

[5] = biological target: T4, Prostaglandin G/H synthase 1; test: as §1
[6] = biological target: T5, Prostaglandin G/H synthase 1 (Ovis aries) (UniProt P05979); test: IC50 value against ovine Prostaglandin G/H synthase 1; Not active; conditions: concentration not given here
T5 sequence (whole entry): T3 sequence (P05979 whole entry)

[7] = biological target: T5, Prostaglandin G/H synthase 1 (Ovis aries); test: IC50 value against oCOX-1 at 10 uM
[8] = species on record: Mus musculus; test: ED50 measured by hyperalgesia assay; type: functional
[9] = species on record: Rattus norvegicus; test: ED50 measured by CFE assay; type: functional
[10] = species on record: Rattus norvegicus; test: Percentage of gastric damage was measured in rats.; type: functional, Stomach
[11] = biological target: T5, Prostaglandin G/H synthase 1 (Ovis aries); test: IC50 value against ovine Prostaglandin G/H synthase 1 at 10 uM
[12] = species on record: Rattus norvegicus; test: Lesion frequency measured in rats; type: functional
[13] = species on record: Rattus norvegicus; test: Percentage inhibition of the prostaglandin synthesis was measured in rats.; type: functional
[14] = biological target: T4, Prostaglandin G/H synthase 1; test: IC50 value was determined against Prostaglandin G/H synthase 1 of human platelet rich plasma; Not active
[15] = biological target: T1, Prostaglandin G/H synthase 2; test: IC50 value against recombinant human Prostaglandin G/H synthase 2; not active
[16] = biological target: T6, Prostaglandin G/H synthase 2 (Homo sapiens) (UniProt P35354); test: IC50 value against recombinant human Prostaglandin G/H synthase 2 at 10 uM
T6 sequence (whole entry): T1 sequence (P35354 whole entry)

[17] = biological target: T5, Prostaglandin G/H synthase 1 (Ovis aries); test: IC50 value against oCOX-1 at 10 uM; Not active

Compound: CC(C)(C)c1cc(/C=C2\SC(=S)NC2=O)cc(C(C)(C)C)c1O
- IC50 [1]: 1500 nM
- IC50 [2]: 390 nM
- IC50 [3]: 24000 nM
- IC50 [4]: > 20000 nM

Compound: CSC1=NC(=O)/C(=C/c2cc(C(C)(C)C)c(O)c(C(C)(C)C)c2)S1
- IC50 [1]: 1800 nM
- IC50 [2]: 1600 nM
- IC50 [3]: 63000 nM
- IC50 [5]: 14400 nM

Compound: CONC1=NC(=O)/C(=C/c2cc(C(C)(C)C)c(O)c(C(C)(C)C)c2)S1 [listing 1 of 2 here]
- inhibition [6]: < 20%

Compound: CC(C)(C)c1cc(/C=C2\SC(N=C(N)N)=NC2=O)cc(C(C)(C)C)c1O
- IC50 [1]: 21000 nM
- IC50 [2]: 430 nM
- IC50 [3]: 6.1 nM
- IC50 [5]: 250 nM

Compound: CC(C)(C)c1cc(/C=C2\SC(NC#N)=NC2=O)cc(C(C)(C)C)c1O
- IC50 [1]: 55000 nM
- inhibition [7]: < 20%
- IC50 [2]: 230 nM
- IC50 [5]: > 20000 nM

Compound: CC(C)(C)c1cc(/C=C2\SC(NO)=NC2=O)cc(C(C)(C)C)c1O
- IC50 [1]: 1500 nM
- IC50 [2]: 170 nM
- IC50 [3]: 52000 nM
- IC50 [5]: 9200 nM

Compound: C/C(=C1/SC(N=C(N)N)=NC1=O)c1cc(C(C)(C)C)c(O)c(C(C)(C)C)c1
- IC50 [1]: 12000 nM
- IC50 [2]: 180 nM
- IC50 [3]: 460 nM
- IC50 [4]: 590 nM

Compound: CONC1=NC(=O)/C(=C/c2cc(C(C)C)c(O)c(C(C)C)c2)S1
- IC50 [1]: 570 nM
- IC50 [2]: > 20000 nM
- IC50 [3]: > 20000 nM
- IC50 [5]: > 20000 nM

Compound: CS(=O)(=O)c1ccc(-n2nc(C(F)(F)F)cc2-c2ccc(F)cc2)cc1 [SC-58125]
- ED40 [8]: 0.3 mg/kg
- ED40 [9]: > 30 mg/kg
- Gastric damage [10]: 0%
- inhibition [11]: < 20%
- Lesion frequency [12]: 0%
- Inhibition [13]: -1.58%

Compound: CC(C)(C)c1cc(/C=C2\OC(N=C(N)N)=NC2=O)cc(C(C)(C)C)c1O
- IC50 [1]: 5100 nM
- IC50 [2]: 440 nM
- IC50 [3]: 1200 nM
- IC50 [4]: 4400 nM

Compound: CN1C(NC(=N)N)=NC(=O)/C1=C/c1cc(C(C)(C)C)c(O)c(C(C)(C)C)c1
- IC50 [1]: 81000 nM
- IC50 [2]: 750 nM
- IC50 [3]: 27 nM
- IC50 [4]: 1500 nM

Compound: CC(C)c1cc(/C=C2\SC(N=C(N)N)=NC2=O)cc(C(C)C)c1O
- IC50 [1]: 1800 nM
- IC50 [2]: 190 nM
- IC50 [3]: 220 nM
- IC50 [5]: 2700 nM

Compound: CONC1=NC(=O)/C(=C/c2cc(C(C)(C)C)c(O)c(C(C)(C)C)c2)O1
- IC50 [2]: 790 nM
- IC50 [3]: 7300 nM
- IC50 [4]: > 20000 nM

Compound: COc1ccc2c(c1)c(CC(=O)O)c(C)n2C(=O)c1ccc(Cl)cc1 [INDOMETHACIN]
- ED40 [8]: 0.6 mg/kg
- ED40 [9]: 1.6 mg/kg
- Gastric damage [10]: 0.18%
- Lesion frequency [12]: 75%
- Inhibition [13]: 96.5%

Compound: CCONC1=NC(=O)/C(=C/c2cc(C(C)(C)C)c(O)c(C(C)(C)C)c2)S1
- IC50 [1]: 3200 nM
- inhibition [6]: < 20%
- IC50 [2]: 270 nM
- IC50 [14]: > 20000 nM

Compound: C=CCONC1=NC(=O)/C(=C/c2cc(C(C)(C)C)c(O)c(C(C)(C)C)c2)S1
- IC50 [1]: 2700 nM
- inhibition [6]: < 20%
- IC50 [2]: 1600 nM
- IC50 [14]: > 20000 nM

Compound: CSC1=NC(=O)/C(=C/c2cc(C(C)(C)C)c(O)c(C(C)(C)C)c2)O1
- IC50 [2]: 540 nM
- IC50 [3]: 1600 nM
- IC50 [5]: 6400 nM
- IC50 [15]: Not Active

Compound: CONC1=NC(=O)/C(=C/c2cc(C(C)(C)C)c(O)c(C(C)(C)C)c2)S1.C[N+](C)(C)CC[O-]
- ED40 [8]: 0.1 mg/kg
- ED40 [9]: 15.7 mg/kg
- Gastric damage [10]: 0%
- Lesion frequency [12]: 0%
- Inhibition [13]: 32.8%

Compound: CC(C)(C)c1cc(C=C2SC(=N)NC2=O)cc(C(C)(C)C)c1O [DARBUFELONE]
- IC50 [2]: 69 nM
- inhibition [16]: 41%
- IC50 [5]: 600 nM
- inhibition [17]: < 20%

Compound: CC(C)(C)c1cc(/C=C2\OC(=O)NC2=O)cc(C(C)(C)C)c1O
- IC50 [1]: 34000 nM
- IC50 [2]: 71 nM
- IC50 [3]: 95 nM
- IC50 [4]: 1200 nM

Compound: CONC1=NC(=O)/C(=C/c2cc(C(C)(C)C)c(O)c(C(C)(C)C)c2)S1 [listing 2 of 2 here]
- IC50 [1]: 1700 nM
- IC50 [2]: 170 nM
- IC50 [14]: > 20000 nM

Compound: C=CCONC1=NC(=O)/C(=C/c2cc(C(C)(C)C)c(O)c(C(C)(C)C)c2)O1
- IC50 [1]: 26000 nM
- IC50 [2]: 1900 nM
- IC50 [3]: 4000 nM
- IC50 [4]: > 20000 nM

Compound: CCONC1=NC(=O)/C(=C/c2cc(C(C)(C)C)c(O)c(C(C)(C)C)c2)O1
- IC50 [1]: 79000 nM
- IC50 [2]: 650 nM
- IC50 [3]: 3500 nM
- IC50 [4]: > 20000 nM

Compound: CC(C)(C)c1cc(/C=C2\SC(=O)NC2=O)cc(C(C)(C)C)c1O
- IC50 [1]: 4700 nM
- IC50 [2]: 60 nM
- IC50 [3]: 42000 nM
- IC50 [4]: 9300 nM

Compound: CON(C)C1=NC(=O)/C(=C/c2cc(C(C)(C)C)c(O)c(C(C)(C)C)c2)S1
- ED40 [8]: 0.06 mg/kg
- IC50 [1]: 18000 nM
- ED40 [9]: 8.1 mg/kg
- IC50 [2]: 1600 nM
- Damaged area [10]: 0.04%
- IC50 [3]: 51000 nM
- Lesion frequency [12]: 25%
- Inhibition [13]: 52.2%
- IC50 [5]: 5800 nM

Compound: CS(=O)(=O)Nc1ccc([N+](=O)[O-])cc1OC1CCCCC1 [NS-398]
- ED40 [8]: 7.4 mg/kg
- ED40 [9]: 0.61 mg/kg
- Gastric damage [10]: 0%
- Lesion frequency [12]: 0%
- Inhibition [13]: 30.7%

Compound: CC(C)(C)c1cc(/C=C2\NC(=S)NC2=O)cc(C(C)(C)C)c1O
- IC50 [1]: 260 nM
- IC50 [2]: 83 nM
- IC50 [3]: 1300 nM
- IC50 [4]: 990 nM
